# Results: patent publication US11242337B2, “Compounds useful for treating gastrointestinal tract disorders” (Ardelyx, Inc., priority 2017, dated 2022)
# Where two headings read alike, the source gives them in different places.
# Key:
# NHE3 = target: T1, NHE3 (Homo sapiens, UniProt P48764); experiment: Cell-based assay of NHE-3 activity (pre-incubation inhibition), human; conditions: human Preincubation; for pIC50: 0-30 μM test compound
# T1 construct: expressed in transfected cells
# T1 sequence (P48764 26-834): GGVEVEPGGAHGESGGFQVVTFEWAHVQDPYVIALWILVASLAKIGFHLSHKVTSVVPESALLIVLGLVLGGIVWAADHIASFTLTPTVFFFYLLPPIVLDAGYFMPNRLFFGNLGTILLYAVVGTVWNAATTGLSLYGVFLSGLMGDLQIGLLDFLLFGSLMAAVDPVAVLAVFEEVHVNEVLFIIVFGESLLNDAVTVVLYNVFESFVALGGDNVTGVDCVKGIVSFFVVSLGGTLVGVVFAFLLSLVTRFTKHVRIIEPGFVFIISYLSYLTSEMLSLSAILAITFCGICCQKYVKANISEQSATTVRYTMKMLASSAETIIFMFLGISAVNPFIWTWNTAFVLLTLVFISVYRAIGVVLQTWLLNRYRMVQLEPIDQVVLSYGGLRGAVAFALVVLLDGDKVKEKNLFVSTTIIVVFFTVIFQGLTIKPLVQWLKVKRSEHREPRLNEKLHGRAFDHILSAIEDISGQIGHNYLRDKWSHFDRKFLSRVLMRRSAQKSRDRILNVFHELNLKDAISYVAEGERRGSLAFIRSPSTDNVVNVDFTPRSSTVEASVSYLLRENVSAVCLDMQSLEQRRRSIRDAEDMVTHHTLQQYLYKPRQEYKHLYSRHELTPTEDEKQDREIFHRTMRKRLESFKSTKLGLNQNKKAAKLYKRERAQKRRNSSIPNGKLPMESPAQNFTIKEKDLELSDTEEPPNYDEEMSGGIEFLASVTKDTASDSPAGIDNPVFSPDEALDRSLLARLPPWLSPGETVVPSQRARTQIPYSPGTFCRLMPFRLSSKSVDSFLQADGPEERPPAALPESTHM
# T1 sequence (Q99653 2-195 partner limits assumed): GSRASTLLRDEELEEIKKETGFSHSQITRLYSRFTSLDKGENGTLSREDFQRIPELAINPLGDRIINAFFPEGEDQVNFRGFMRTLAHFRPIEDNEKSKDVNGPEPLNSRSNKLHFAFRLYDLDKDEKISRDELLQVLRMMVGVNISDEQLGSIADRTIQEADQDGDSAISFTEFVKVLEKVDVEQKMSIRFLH
# Outline: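 PS120 fibroblasts stably expressing human NHE3 and NHERF2, loaded 30 min at 37 °C with 5 μM BCECF-AM in NH4Cl buffer, then acidified 10 min at room temperature in Na+-free buffer with 0–30 μM compound. Initial rate of BCECF fluorescence ratio change (FLIPR) per minute taken as Na+/H+ activity.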
# [1] = tested on: human duodenum monolayer culture; experiment: Increased trans-epithelial resistance (TEER) in human organoid monolayer cell cultures; format: cell-based; conditions: 1 μM apical, baseline corrected
# Description: Basal media (B consisted of advanced DMEM/F12 containing 10 mM HEPES (Invitrogen, 15630-080), 1:100 Glutamax (Invitrogen, 35050-061), and 1:100 penicillin/streptomycin (Invitrogen, 15140-122). Supplemented basal media (SBM) contained 1:100 N2 (Invitrogen, 17502-048), 1:50 B27 (Invitrogen, 12587-010), 1 mM N-acetylcysteine (Sigma, A9165), and 10 nM [Leu15]-gastrin I (Sigma, G9145). Growth factors used included 50 ng per mL mouse EGF (Peprotech, 315-09), 100 ng per mL mouse noggin (Peprotech, 250-38), 500 ng per mL human R-spondin 1 (R&D, 4645-RS), 100 ng per mL mouse Wnt-3a (R&D, 1324-WN), 20 μM Y-27632 (Tocris, 1254), 10 mM nicotinamide (Sigma, N0636), 500 nM A83-01 (Tocris, 2939), 10 μM SB202190 (Tocris, 1264). Transwells were 0.4 μm pore polyester membrane 24-well Transwell inserts (Corning). Cultures were incubated at 37° C. in 5% CO2.
# Human duodenum organoids were cultured in WENRNAS (Wnt, EGF, noggin, R-spondin1, Nicotinamide, A83-01, SB202190) and typically grown for 7-12 days before being used to plate monolayer cultures. On day 0, organoid cultures embedded in Matrigel were treated with TrypLE Express to break organoids into small pieces and/or single cells. The cells were resuspended to 0.5×10^6 cells/mL in SBM containing WENRAY (Wnt, EGF, noggin, R-spondin1, A83-01, Y-27632). Following this step, 200 μL of cell suspension was plated into the apical side of a 24-well Transwell (100,000 cells/well) and 600 μL of SBM with WENRAY was added to the basolateral side. Duodenum cells were differentiated with ENA (EGF, noggin, A83-01) on day 3. The color of apical compartment turns from pink or orange to yellow due to the increase in NHE3 expression after differentiation.
# Each human duodenum monolayer culture well was washed twice with fresh SBM on the apical side on day 6 or day 7 before dosing. All compound stocks were 10 mM dissolved DMSO. Each compound stock was individually mixed with fresh SBM to reach final compound concentration 1 μM and dosed only on the apical side of the monolayer (total volume 200 μl). DMSO at the equivalent concentration was used as the vehicle control. Duplicate wells were dosed for each compound. Transepithelial electrical resistance (TEER) was used as a quantitative technique to measure of tight junction permeability. TEER values were recorded (MERS00002, Millipore) before dosing and 30 mins and 1 hr after dosing for all wells. Each of the duplicate TEER values following treatment were corrected for the individual well baseline TEER. Baseline corrected TEER for each example compound was compared to the average of the DMSO wells and expressed as a percent TEER of vehicle control.
# [2] = 1 hr after dosing, read-out: TEER at 60 minutes (% of Vehicle)
# [3] = 0.5 h, 30 mins after dosing, read-out: TEER at 30 minutes (% of Vehicle)
Compound,% inhibition (NHE3),pIC50 (NHE3),"activity at 1 µM [1, 2] [%]","activity at 1 µM [1, 3] [%]"
"Cc1cc(S(=O)(=O)NCCOCCOCCNC(=O)NCCCCNC(=O)NCCOCCOCCNS(=O)(=O)c2ccc(O[C@H]3c4cc(Cl)cc(C)c4C[C@@H]3N(C)C)c(C)c2)ccc1O[C@H]1c2cc(Cl)cc(C)c2C[C@@H]1N(C)C [Example 17, 3-[2-(2-[2-[(4-[[(1S,2S)-6-Chloro-2-(dimethylamino)-4-methyl-2,3-dihydro-1H-inden-1-yl]oxy]-3-methylbenzene)sulfonamido]ethoxy]ethoxy)ethyl]-1-[4-([[2-(2-[2-[(4-[[(1S,2S)-6-chloro-2-(dimethylamino)-4-methyl-2,3-dihydro-1H-inden-1-yl]oxy]-3-methylbenzene)sulfonamido]ethoxy]ethoxy)ethyl]carbamoyl]amino)butyl]urea]",C (>70%),C (NHE3 pIC50 > 7),100 to 130,100 to 130
"Cc1cc(Cl)cc2c1C[C@H](N(C)C)[C@H]2Oc1ccc(S(=O)(=O)NCCOCCOCCNC(=O)NCCCCNC(=O)NCCOCCOCCNS(=O)(=O)c2ccc(O[C@H]3c4cc(Cl)cc(C)c4C[C@@H]3N(C)C)c(F)c2)cc1F [Example 24, 3-[2-(2-[2-[(4-[[(1S,2S)-6-Chloro-2-(dimethylamino)-4-methyl-2,3-dihydro-1H-inden-1-yl]oxy]-3-fluorobenzene)sulfonamido]ethoxy]ethoxy)ethyl]-1-[4-([[2-(2-[2-[(4-[[(1S,2S)-6-chloro-2-(dimethylamino)-4-methyl-2,3-dihydro-1H-inden-1-yl]oxy]-3-fluorobenzene)sulfonamido]ethoxy]ethoxy)ethyl]carbamoyl]amino)butyl]urea]",C (>70%),,100 to 130,100 to 130
"Cc1cc(Cl)cc2c1C[C@H](N1CCC[C@@H](N(C)C)C1)[C@H]2Oc1ccc(S(=O)(=O)NCCOCCOCCNC(=O)NCCCCNC(=O)NCCOCCOCCNS(=O)(=O)c2ccc(O[C@H]3c4cc(Cl)cc(C)c4C[C@@H]3N3CCC[C@@H](N(C)C)C3)c(F)c2)cc1F [Example 30, 3-[2-(2-[2-[(4-[[(1S,2S)-6-Chloro-2-[(3R)-3-(dimethylamino)piperidin-1-yl]-4-methyl-2,3-dihydro-1H-inden-1-yl]oxy]-3-fluorobenzene)sulfonamido]ethoxy]ethoxy)ethyl]-1-[4-([[2-(2-[2-[(4-[[(1S,2S)-6-chloro-2-[(3R)-3-(dimethylamino)piperidin-1-yl]-4-methyl-2,3-dihydro-1H-inden-1-yl]oxy]-3-fluorobenzene)sulfonamido]ethoxy]ethoxy)ethyl]carbamoyl]amino)butyl]urea; bis(trifluoroacetic acid)]",C (>70%),C (NHE3 pIC50 > 7),100 to 130,100 to 130
"O=C(NCCCCNC(=O)NCCOCCOCCNS(=O)(=O)c1ccc(O[C@H]2c3cc(Cl)cc(Cl)c3C[C@@H]2N2CCNCC2)cc1)NCCOCCOCCNS(=O)(=O)c1ccc(O[C@H]2c3cc(Cl)cc(Cl)c3C[C@@H]2N2CCNCC2)cc1 [Example 31, 3-[2-(2-[2-[(4-[[(1S,2S)-4,6-Dichloro-2-(piperazin-1-yl)-2,3-dihydro-1H-inden-1-yl]oxy]benzene)sulfonamido]ethoxy]ethoxy)ethyl]-1-[4-([[2-(2-[2-[(4-[[(1S,2S)-4,6-dichloro-2-(piperazin-1-yl)-2,3-dihydro-1H-inden-1-yl]oxy]benzene)sulfonamido]ethoxy]ethoxy)ethyl]carbamoyl]amino)butyl]urea; bis(trifluoroacetic acid)]",C (>70%),,> 130,100 to 130
"Cc1cc(S(=O)(=O)NCCOCCOCCNC(=O)NCCCCNC(=O)NCCOCCOCCNS(=O)(=O)c2ccc(O[C@H]3c4cc(Cl)cc(Cl)c4C[C@@H]3N3CCNCC3)c(C)c2)ccc1O[C@H]1c2cc(Cl)cc(Cl)c2C[C@@H]1N1CCNCC1 [Example 32, 3-[2-(2-[2-[(4-[[(1S,2S)-4,6-Dichloro-2-(piperazin-1-yl)-2,3-dihydro-1H-inden-1-yl]oxy]-3-methylbenzene)sulfonamido]ethoxy]ethoxy)ethyl]-1-[4-([[2-(2-[2-[(4-[[(1S,2S)-4,6-dichloro-2-(piperazin-1-yl)-2,3-dihydro-1H-inden-1-yl]oxy]-3-methylbenzene)sulfonamido]ethoxy]ethoxy)ethyl]carbamoyl]amino)butyl]urea; bis(trifluoroacetic acid)]",C (>70%),C (NHE3 pIC50 > 7),> 130,100 to 130
"C[C@@H]1CN([C@H]2Cc3c(C#N)cc(Cl)cc3[C@@H]2Oc2ccc(S(=O)(=O)N[C@@H]3CCN(CCOCCNC(=O)NCCCCNC(=O)NCCOCCN4CC[C@@H](NS(=O)(=O)c5ccc(O[C@H]6c7cc(Cl)cc(C#N)c7C[C@@H]6N6CCN[C@H](C)C6)cc5)C4)C3)cc2)CCN1 [Example 133, 4-([(1S,2S)-6-Chloro-4-cyano-2-[(R)-3-methylpiperazin-1-yl]-2,3-dihydro-1H-inden-1-yl]oxy)-N—[(R)-1-(20-[(R)-3-([4-([(1S,2S)-6-chloro-4-cyano-2-[(R)-3-methylpiperazin-1-yl]-2,3-dihydro-1H-inden-1-yl]oxy)phenyl]sulfonamido)pyrrolidin-1-yl]-7,14-dioxo-3,18-dioxa-6,8,13,15-tetraazaicosyl)pyrrolidin-3-yl]benzenesulfonamide; bis(trifluoroacetic acid)]",C (>70%),C (NHE3 pIC50 > 7),,
"N#Cc1cc(Cl)cc2c1C[C@H](N1CCNCC1)[C@H]2Oc1ccc(S(=O)(=O)N[C@H]2CCN(C(=O)CCCNC(=O)NCCCCNC(=O)NCCCC(=O)N3CC[C@H](NS(=O)(=O)c4ccc(O[C@H]5c6cc(Cl)cc(C#N)c6C[C@@H]5N5CCNCC5)cc4)C3)C2)cc1 [Example 143, 4-([(1S,2S)-6-Chloro-4-cyano-2-(piperazin-1-yl)-2,3-dihydro-1H-inden-1-yl]oxy)-N—[(S)-1-(18-[(S)-3-([4-([(1S,2S)-6-chloro-4-cyano-2-(piperazin-1-yl)-2,3-dihydro-1H-inden-1-yl]oxy)phenyl]sulfonamido)pyrrolidin-1-yl]-6,13,18-trioxo-5,7,12,14-tetraazaoctadecanoyl)pyrrolidin-3-yl]benzenesulfonamide]",C (>70%),C (NHE3 pIC50 > 7),,
